The record followed here is ChEMBL document CHEMBL1133860, “Synthesis and biological evaluation of a series of novel N- or O-fluoroalkyl derivatives of tropane: potential positron emission tomography (PET) imaging agents for the dopamine transporter” (Bioorg Med Chem Lett, 2001).

The target of assay [1] is Norepinephrine transporter (Rattus norvegicus, UniProt Q9WTR4). Kind of assay: Ability to displace [3H]- nisoxetin from Norepinephrine transporter in rat cerebral cortical homogenate.
Assay [2] deals with Sodium-dependent dopamine transporter (Rattus norvegicus, UniProt P23977). In words: Ability to displace [3H]- beta-CIT from Dopamine transporter in rat striatal homogenate.
Sodium-dependent dopamine transporter, sequence (P23977 whole entry): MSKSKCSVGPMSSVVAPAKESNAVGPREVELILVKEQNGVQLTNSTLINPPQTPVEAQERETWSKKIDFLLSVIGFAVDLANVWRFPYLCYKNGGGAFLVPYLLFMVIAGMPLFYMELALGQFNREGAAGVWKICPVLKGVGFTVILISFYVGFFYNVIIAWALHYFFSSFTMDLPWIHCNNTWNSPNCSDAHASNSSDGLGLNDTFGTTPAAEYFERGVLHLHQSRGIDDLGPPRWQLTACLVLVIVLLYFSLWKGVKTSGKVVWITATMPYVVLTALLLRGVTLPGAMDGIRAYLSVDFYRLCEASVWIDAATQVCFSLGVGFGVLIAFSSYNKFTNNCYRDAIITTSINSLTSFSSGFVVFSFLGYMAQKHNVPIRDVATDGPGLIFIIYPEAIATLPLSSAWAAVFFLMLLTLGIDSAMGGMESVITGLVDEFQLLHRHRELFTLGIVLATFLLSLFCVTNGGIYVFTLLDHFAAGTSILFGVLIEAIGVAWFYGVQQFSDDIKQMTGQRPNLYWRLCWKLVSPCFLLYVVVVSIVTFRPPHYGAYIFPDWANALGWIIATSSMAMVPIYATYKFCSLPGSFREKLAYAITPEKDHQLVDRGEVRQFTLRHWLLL
The test system of assay [3] is Monoamine transporters; serotonin & dopamine. In words: Selectivity for DAT determined as ratio of binding affinity for SERT to that for DAT. The class given is protein assay.
Assay [4] concerns the target Sodium-dependent serotonin transporter (Rattus norvegicus, UniProt P31652). Kind of assay: Ability to displace [3H]- paroxetine from Serotonin transporter in rat cerebral cortical homogenate.
The subject of assay [5] is Monoamine transporters; Norepinephrine & dopamine. In words: Selectivity for DAT determined as ratio of binding affinity for NET to that for DAT. The class given is protein assay.

Norepinephrine transporter, sequence (Q9WTR4 whole entry): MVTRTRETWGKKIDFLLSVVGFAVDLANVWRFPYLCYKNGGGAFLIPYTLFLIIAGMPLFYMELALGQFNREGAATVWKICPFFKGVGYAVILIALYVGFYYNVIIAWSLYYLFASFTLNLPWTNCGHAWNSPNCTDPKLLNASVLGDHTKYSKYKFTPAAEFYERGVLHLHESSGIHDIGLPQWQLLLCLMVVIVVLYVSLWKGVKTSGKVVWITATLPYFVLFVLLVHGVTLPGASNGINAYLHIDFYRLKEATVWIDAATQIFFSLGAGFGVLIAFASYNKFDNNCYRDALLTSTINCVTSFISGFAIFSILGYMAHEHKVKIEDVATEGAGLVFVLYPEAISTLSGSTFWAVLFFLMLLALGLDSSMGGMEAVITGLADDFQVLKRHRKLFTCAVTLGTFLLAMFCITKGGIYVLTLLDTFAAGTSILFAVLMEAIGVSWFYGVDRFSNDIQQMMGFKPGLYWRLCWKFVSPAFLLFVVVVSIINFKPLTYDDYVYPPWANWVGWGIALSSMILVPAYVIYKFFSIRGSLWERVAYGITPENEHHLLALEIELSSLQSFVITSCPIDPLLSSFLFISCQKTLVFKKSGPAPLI
Sodium-dependent serotonin transporter, sequence (P31652 whole entry): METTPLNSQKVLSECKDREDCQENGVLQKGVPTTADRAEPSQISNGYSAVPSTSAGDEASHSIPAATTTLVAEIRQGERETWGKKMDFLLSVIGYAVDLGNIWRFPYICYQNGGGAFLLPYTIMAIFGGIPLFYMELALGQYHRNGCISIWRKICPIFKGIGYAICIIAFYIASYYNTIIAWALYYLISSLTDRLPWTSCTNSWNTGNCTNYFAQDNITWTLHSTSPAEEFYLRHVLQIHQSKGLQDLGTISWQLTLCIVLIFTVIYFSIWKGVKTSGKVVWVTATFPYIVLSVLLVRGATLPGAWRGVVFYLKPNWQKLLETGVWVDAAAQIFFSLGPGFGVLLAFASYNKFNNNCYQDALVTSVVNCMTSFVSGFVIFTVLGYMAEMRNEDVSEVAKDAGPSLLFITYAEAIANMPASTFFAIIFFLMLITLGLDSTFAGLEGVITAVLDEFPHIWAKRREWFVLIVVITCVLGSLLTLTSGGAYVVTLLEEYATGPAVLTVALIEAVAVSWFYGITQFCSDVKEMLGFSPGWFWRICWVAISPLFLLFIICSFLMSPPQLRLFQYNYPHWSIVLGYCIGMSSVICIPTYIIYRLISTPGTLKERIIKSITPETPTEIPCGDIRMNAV

On to `CN1C2CCC1C(C(=O)OCCCF)C(c1ccc(I)cc1)C2` (configuration not stated), for which the Ki (commonly the equilibrium dissociation constant of an inhibitor or competing ligand from its target) in assay [1] was determined as 173 nM; in assay [2], 1.54 nM; in assay [4], 1.65 nM. Besides, the Selectivity ratio worked out at 1.1 in assay [3] and 112 in assay [5].
In the same order, the values of `COC(=O)C1C(c2ccc(C)cc2)CC2CCC1N2CCF` (configuration not stated) are 268 nM, 32.1 nM, 375 nM, 11.7 and 8.4.
As to `Cc1ccc(C2CC3CCC(C2C(=O)OCCCF)N3C)cc1` (configuration not stated), the Ki was 260 nM in assay [1], 7.17 nM in assay [2] and 325 nM in assay [4]. In addition, the Selectivity ratio in assay [3] was determined as 45.3; in assay [5] it was 36.3.
With `COC(=O)C1C(c2ccc(Br)cc2)CC2CCC1N2CCCF` (configuration not stated), the Ki is 196 nM in assay [1], 3.33 nM in assay [2] and 36.4 nM in assay [4]. Further, the Selectivity ratio is 10.9 in assay [3] and 58.9 in assay [5].
In the case of `COC(=O)C1C(c2ccc(I)cc2)CC2CCC1N2CCCF` (configuration not stated), the Ki was 8.29 nM in assay [2] and 1.68 nM in assay [4]. For the same molecule, the Selectivity ratio was determined as 0.2 in assay [3] and 7.6 in assay [5].
With `CN1C2CCC1C(C(=O)OCCF)C(c1ccc(I)cc1)C2` (configuration not stated), the Ki in assay [1] amounted to 173 nM; in assay [2], 0.93 nM; in assay [4], 1.65 nM. The Selectivity ratio in assay [3] was determined as 1.1; in assay [5] it was 112.
Consider `COC(=O)[C@@H]1C2CC[C@H](C[C@@H]1c1ccc(I)cc1)N2C`, for which the Ki in assay [2] stood at 1.33 nM. For the same molecule, the Selectivity ratio in assay [3] was 0.4; in assay [5] it was 2.1.
With `COC(=O)C1C2CCC(CC1c1ccc(I)cc1)N2` (configuration not stated), the Ki in assay [1] is 1.85 nM; in assay [2], 0.64 nM; in assay [4], 0.06 nM. For the same molecule, the Selectivity ratio in assay [3] is 0.1; in assay [5], 2.9.
In the same order, the values of `COC(=O)C1C(c2ccc(C)cc2)CC2CCC1N2CCCF` (configuration not stated) are 1210 nM, 37.6 nM, 1310 nM, 34.9 and 32.1.
On to `O=C(OCCF)C1C(c2ccc(I)cc2)CC2CCC1N2CCCF` (configuration not stated), for which the Ki was determined as 723 nM in assay [1], 8.71 nM in assay [2] and 13.3 nM in assay [4]. Further, the Selectivity ratio in assay [3] came out at 1.5; in assay [5], 83.
